Reference: ChEMBL document CHEMBL3507680, “University of Dundee, Gates Library screen for HepG2 cell viability”

Experiment: Human HepG2 cell viability assay in 384 well format
Assay type: toxicity, cell-based
Set-up: dose 125 nL, time 70.5 hour; concentration not given beside the values
Settings: HepG2 cells, read-out: Inhibition

Structure (SMILES) | cytotoxicity at 70.5 h [%]
Cc1ccc(NS(=O)(=O)c2cnn(-c3ccccc3)c2)c(C(=O)O)c1 | -5.8
COc1ccc(-c2n[nH]cc2CN(C)CCc2scnc2C)c(F)c1 | 1.84
CC(C)OCc1ccc(CNC(=O)CC(F)(F)F)cc1 | -7.73
CCCNC(=O)CNc1cc(C(=O)NCC(F)(F)F)cc(F)c1C | -6.37
Cc1nn(-c2ccccc2)c(C)c1CC(=O)NC1CC(=O)N(C)C1 (configuration not stated) | -7.27
O=C(NCCC(=O)N1CCCC1)c1nn(-c2ccccc2F)cc1O | 35.9
O=C(NC1CCCN(CCc2ccccc2)C1)c1ccccn1 (configuration not stated) | -1.94
CCC[C@H]1CN(S(C)(=O)=O)C[C@@H]1NC(=O)c1ccc(COC)cc1 | 0.361
C1CCC(CO[C@@H]2CC[C@H]3[C@H]2OCCN3CC2CCOCC2)C1 | -84.4
O=C1NCCCCC1Sc1n[nH]c(=O)n1C1CC1 (configuration not stated) | 15.9
Cc1noc(C(C)C)c1C(=O)NCc1ccc2c(c1)OCCO2 | -5.36
Cn1cc(C(=O)Nc2ccc3c(c2)CN(C(=O)C2CC2)CC3)nn1 | -8.54
COc1cc(-c2nc(CN(CCO)CCO)c(C)o2)ccc1F | 2.15
CCn1nccc1C(=O)Nc1nc(C)c(C(C)=O)s1 | -5.2
Cc1cc(C)nc(C2CCCN2c2ccnc(C)n2)n1 (configuration not stated) | -0.201
Cc1ccoc1C(=O)NCC(c1ccccc1Cl)N1CCOCC1 (configuration not stated) | -1.62
O=C(c1cccc(F)c1)N1CCC2(CC1)CC(N1CCOCC1)C2 | -14.8
Cc1nc(C)n(C2CCCN(C(=O)CCCn3ccnc3)C2)n1 (configuration not stated) | 4.28
CC(C)SCc1cccc(NC(=O)NC(C)c2nc[nH]n2)c1 (configuration not stated) | -7.97
Cc1cc(F)ccc1C(=O)N1C[C@@H]2COC[C@]2(COCC2CC2)C1 | -10.8
CCOc1ccccc1C(=O)N1CCn2c(nnc2C(F)(F)F)C1 | -1.86

Structure (SMILES) | cytotoxicity at 70.5 h [%]
CN(C)C(=O)c1noc2c1CN(C(=O)CCCN1CCCCC1)CC2 | 10.8
Cc1noc(Cl)c1CCC(=O)N1CCN(c2cnccn2)CC1 | -16.7
c1cncc(-c2noc(CNC3CCc4ncnn4C3)n2)c1 (configuration not stated) | -5.95
NC1CCc2nc(-c3cccnc3)nc(Nc3ccc(F)cc3)c2C1 (configuration not stated) | 3.41
Cc1cccc(C(=O)NCC2CCS(=O)(=O)C2)n1 (configuration not stated) | -1.5
CC(C)NC(=O)Nc1cccc2c1CCN(S(C)(=O)=O)C2 | -1.67
Cc1cc(CNC2(c3ccccc3F)CC2)no1 | -4.02
CCc1noc(C(C)N(C)CC(=O)Nc2ccc(Cl)c(C(F)(F)F)c2)n1 (configuration not stated) | -97
CN(C)c1ccc(C(=O)Nc2ccn(CC(N)=O)n2)cn1 | -8.63
CCc1nnc2n1CCN(C(=O)C(OC)c1ccccc1)C2 (configuration not stated) | -8.62
CN(Cc1ccccc1F)C(=O)CS(=O)(=O)Cc1ccc(Cl)c(Cl)c1 | -19
O=C(c1[nH]nc(C2CC2)c1Cl)N1CCN(C2CC2)CC1 | 0.431
CC(C)(CN)NS(=O)(=O)c1c(F)cccc1F | 2.67
C[C@H]1CN(C)C[C@@]12COCCN(C(=O)Cc1ccccc1)C2 | 0.777
Cc1nnc(CN(C)CCCOc2ccc(Cl)cc2)o1 | -10.2
Clc1ccc2cccnc2c1CN1CCCC1Cn1cncn1 (configuration not stated) | -17.7
COc1ccc2c(ccn2CCN)c1 | 5.97
Cn1c(Cn2cccn2)nnc1C1CCN(Cc2cccnc2N)CC1 | -0.251
NCC1CCCCN1Cc1cc(O)c2cccc(F)c2n1 (configuration not stated) | 21.6
Cc1cc(C)c2ncc(C#N)c(NC3CCN(CC(N)=O)CC3)c2c1 | 1.44
Cc1cc(NCC2CC(=O)Nc3ccccc32)nc(C)n1 (configuration not stated) | -1.89

Structure (SMILES) | cytotoxicity at 70.5 h [%]
Cn1nc(C2CNCCO2)cc1CCOc1ccc(C(F)(F)F)cc1 (configuration not stated) | -1.52
Cc1ccc(C)c(-n2ncc(C(=O)NCC3COC(C)(C)O3)c2N)c1 (configuration not stated) | 18.9
CN(C)c1ccc(CN(CCCn2ccnc2)Cc2c[nH]cn2)cc1 | -13.5
CN(C)CCn1ccnc1C1CCN(c2cc(N)nc(N)n2)CC1 | -6.61
CC(=O)N1CCC(c2nccnc2-c2ccc(F)cc2)CC1 | -0.029
Cc1cc(CN2C[C@@H]3COC[C@]3(CNS(C)(=O)=O)C2)no1 | 1.21
CCc1sc(C(=O)Nc2cnn(CC(=O)NC3CC3)c2)cc1C | -8.41
CCOC(=O)N1CCN(C(=O)C2CC(=O)N(c3ccccc3Br)C2)CC1 (configuration not stated) | -2.99
Cn1c(=O)[nH]c(=O)c2c1nc1n2CC(c2ccc(Cl)cc2)O1 (configuration not stated) | 43
CCn1cc(C(=O)Nc2ccc(C)cc2C(=O)OC)cn1 | 16
N#CCSCC(=O)NCC1CCCCC1 | -7.13
CCOc1ccc(Br)cc1C1CCCN1 (configuration not stated) | 18.6
O=C(COc1ccccc1C(F)(F)F)NCCNC(=O)c1ccccc1 | 12.9
CCCOc1ccc(C(=O)N2CC[C@H]3CC[C@@H](C2)N3)cc1Cl | -14.3
CCN(CC)C[C@H]1CN2CC[C@H]1C[C@@H]2CNC(=O)Nc1ccsc1 | -8.02
Cc1ccc(CNC(=O)NCc2nccn2C)c(OC(C)(C)C)c1 | -2.56
CCCN1CCc2nc(SCc3ccccc3F)[nH]c(=O)c2C1 | 6.37
CC1CN(C)CCN1C(=O)c1ccn(-c2ccc(F)cc2)n1 (configuration not stated) | -12.3
CNS(=O)(=O)c1cccc(S(=O)(=O)Nc2ncc(C)s2)c1 | 3.06
CNc1nnc(SCc2nnc(C(C)(C)C)o2)s1 | 15.4
CC1CCCN(CCCNC(=O)c2ccc(N(C)S(C)(=O)=O)cc2Cl)C1 (configuration not stated) | -2.33

Structure (SMILES) | cytotoxicity at 70.5 h [%]
Cc1ccccc1OCC(=O)N1CCN(C2CCOC2=O)CC1 (configuration not stated) | 0.726
CCOc1cc(CNCc2ncc[nH]2)c(Cl)cc1OC(C)C | 20.6
CCS(=O)(=O)NCCNc1cc(-n2cccc2)ncn1 | -0.787
Cc1noc(C(C)Nc2ccc3oc(C)nc3c2)n1 (configuration not stated) | 11.9
CC1(C)O[C@@](C)([C@H]2CC3(CCN(c4cnccn4)CC3)CO2)CC[C@@H]1O | 1.78
Clc1cccc(C(NCc2ncc[nH]2)c2ccccn2)c1 (configuration not stated) | 1.18
CCc1nc(CC(=O)N2CCn3c(CC)nnc3C2)cs1 | -2.3
O=C(O)c1cc(Br)cnc1OCC1CC1 | 2.88
CCS(=O)(=O)N1CCC(NC(=O)c2ccccc2O)CC1 | -6.17
CC1(C(N)=O)CN(CC2CCC2)CCO1 (configuration not stated) | -2.2
CSC1(CNC(=O)N(C)Cc2ccc(Cl)s2)CCOCC1 | 30.6
CC(C)c1nc(C(=O)NCCn2ccnc2)nn1-c1cccc(F)c1 | -14.8
COc1ccccc1CN1CC(O)CN(S(=O)(=O)C(C)C)CC1=O (configuration not stated) | 16.7
COCCOc1ccc(NC(=O)N2CCOC(C(N)=O)C2)cc1F (configuration not stated) | 25.8
COC[C@]12COC[C@H]1CN(S(=O)(=O)c1cccnc1)C2 | -13
Cc1nc(CSCc2ccc(OCC(F)(F)F)nc2)no1 | -7.83
COc1c(C2CCCN2C(=O)c2ccc3cc[nH]c3c2)c(C)nn1C (configuration not stated) | -2.48
CCN(CC1CN(Cc2cccnc2)CCO1)c1cccnn1 (configuration not stated) | -0.418
CN1CC(=O)N(c2ccsc2)CC12CCN(S(C)(=O)=O)C2 (configuration not stated) | 1.05
